Data from US11213527B2, “Inhibitory effect of low molecular weight compound on cancer and fibrosis” (NATIONAL UNIVERSITY CORPORATION TOTTORI UNIVERSITY, priority 2014, dated 2022).

Experiments:
[1] = system: Wnt/β-catenin signal; conditions: induces differentiation of the mesenchymal stem cell into hepatocytes; cited from earlier work
[2] = system: liver fibrosis; assay: Liver disease model mice (carbon tetrachloride-induced liver fibrosis); type: in vivo, C57BL/6 male mice; conditions: IC-2 10.6 or 21.2 mg/kg intraperitoneally 3 times a week for 4 weeks, vs vehicle
Procedure: First, 7-week-old C57BL/6 male mice (Japan SLC, Shizuoka, Japan) were subject to 1-week preparatory rearing. Among them, healthy mice were used. The mice were housed in an animal cage at a room temperature of 22±1° C. and a humidity of 50±5% throughout the preparatory rearing and experimental period and were given ad libitum access to food and water.
A microsyringe (ITO CORPORATION, Shizuoka, Japan) was used to intraperitoneally administer carbon tetrachloride (CCl4: Wako Pure Chemical Industries, Ltd., Osaka, Japan) at 0.2 ml/kg, 3 times a week, for 4, 6, or 8 weeks. Carbon tetrachloride was dissolved into cone oil (Wako Pure Chemical Industries, Ltd.) at a concentration of 10%. The resulting solution was used. After this carbon tetrachloride solution was administered for 4 weeks, the mice were divided into a vehicle administration group, a glycyrrhizin administration group, an ICG-001 administration group, and an IC-2 administration group. Then, a microsyringe was used to intraperitoneally administer, 3 times a week for 4 weeks, carbon tetrachloride and a drug solution prepared in accordance with the following process. Note that the carbon tetrachloride and the drug solution were alternately administered with one-day interval.
Glycyrrhizin (TOKYO CHEMICAL INDUSTRY CO., LTD., Tokyo, Japan) was dissolved in physiological saline. The solution was prepared at a concentration of 30 mg/ml while the pH was adjusted to 7.0 with 4 M NaOH liquid. IC-2 and ICG-001 (AdooQ BioScience, California, USA) were each dissolved in a WellSolve (Celeste Corporation, Tokyo, Japan) at a concentration of 40 mg/ml and 10 mg/ml, respectively. Next, the mixture was heated for 10 min in a hot water bath at 60° C. and was then completely dissolved. A 9-fold volume of physiological saline was added to the WellSolve solution in which the above drugs had each been dissolved. […] Note that an IC-2 dosage was determined on the basis of an effective concentration in vitro. […]

Structure (SMILES): O=C1[C@H](Cc2ccccc2)N2C(=O)CCN(C(=O)NCc3ccccc3)[C@H]2CN1Cc1cccc2ccccc12 [IC-2]
- inhibition of a Wnt/β-catenin signal in a mesenchymal stem cell [1]: inhibit a Wnt/β-catenin signal
- fibrosis area (Sirius red staining) [2]: a decrease in the fibrosis area was detected
- content of hydroxyproline ([2]; glycyrrhizin 150 mg/kg): a large decrease was observed
